Our source for the GI50 and TGI values is PubChem BioAssay (NCI).

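Five concentrations, 48 hours, 96-well plates. At the GI50, growth is halved. TGI marks complete inhibition of growth.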 A value given as a limit tells only on which side of the number the result lay.

Some test systems named below: A498 renal; DU-145 prostate; HOP-62 NSCLC; MOLT-4 leukemia; NCI/ADR-RES ovarian; OVCAR-3 ovarian; SNB-19 CNS; T-47D breast; UACC-257 melanoma; UACC-62 melanoma.
What all share (assay): inhibition of tumour cell growth, NCI panel, 48 h

As to `ClCc1ccc(Cn2cnc3c(Cl)ncnc32)cc1`, the GI50 in the experiment on A498 renal was 29.4 µM; in the experiment with DU-145 prostate it was 7.3 µM; in the experiment with HOP-62 NSCLC it was 11 µM; with MOLT-4 leukemia, 11.8 µM; in the experiment with NCI/ADR-RES ovarian, 10.8 µM; with OVCAR-3 ovarian it was 8.73 µM. Further, the GI50 in the experiment on SNB-19 CNS is 16.9 µM; in the experiment with UACC-257 melanoma, 24.2 µM; with UACC-62 melanoma, 9.76 µM. Further, the TGI in the experiment with A498 renal is 50.4 µM; in the experiment on DU-145 prostate, 25.5 µM; with HOP-62 NSCLC, 23.7 µM; in the experiment with MOLT-4 leukemia, more than 56.2 µM; in the experiment on NCI/ADR-RES ovarian it was 25.2 µM; with OVCAR-3 ovarian, 18.5 µM. The TGI in the experiment with SNB-19 CNS was 43.3 µM; with T-47D breast it was more than 100 µM; in the experiment with UACC-257 melanoma, 50 µM; with UACC-62 melanoma it was 19.5 µM.

Consider `CCOc1ccc2c(c1)CN(Cc1ccc(Cl)cc1)CO2`, for which the GI50 in the experiment with A498 renal is 2.09 µM; in the experiment with DU-145 prostate it was 22.8 µM; in the experiment with HOP-62 NSCLC, 26.2 µM; in the experiment with MOLT-4 leukemia, 19.3 µM; with NCI/ADR-RES ovarian, 19.4 µM; with OVCAR-3 ovarian it was 21.6 µM. The GI50 with SNB-19 CNS was 24.6 µM; in the experiment on T-47D breast it was 17.8 µM; with UACC-257 melanoma, 16 µM; in the experiment on UACC-62 melanoma it was 16.1 µM. Moreover, the TGI with A498 renal was 19.2 µM; in the experiment on DU-145 prostate it was 53.2 µM; with HOP-62 NSCLC it was more than 100 µM; in the experiment with MOLT-4 leukemia, 67.5 µM; in the experiment with NCI/ADR-RES ovarian, 48.9 µM; in the experiment with OVCAR-3 ovarian, 51.1 µM. Besides, the TGI with SNB-19 CNS was more than 100 µM; with T-47D breast it was 52.7 µM; in the experiment on UACC-257 melanoma it was 35.8 µM; in the experiment on UACC-62 melanoma it was 31.2 µM.

With `CN1CCN(c2ccc(NC(=O)c3cncnc3Nc3ccc(OCc4cccc(F)c4)c(Cl)c3)cc2)CC1`, the GI50 in the experiment with A498 renal was 1.55 µM; in the experiment with DU-145 prostate it was 4.9 µM; in the experiment with HOP-62 NSCLC it was 2.53 µM; in the experiment on MOLT-4 leukemia, 0.907 µM; in the experiment with NCI/ADR-RES ovarian, 5.27 µM; in the experiment with OVCAR-3 ovarian, 3.58 µM. Also, the GI50 in the experiment on SNB-19 CNS is 2.81 µM; in the experiment on T-47D breast, 3.63 µM; in the experiment with UACC-257 melanoma it was 1.07 µM; in the experiment with UACC-62 melanoma it was 0.914 µM. Also, the TGI with A498 renal was 24.7 µM; with DU-145 prostate, more than 50 µM; in the experiment with HOP-62 NSCLC, 16.1 µM; with MOLT-4 leukemia it was 2.28 µM; in the experiment with NCI/ADR-RES ovarian, more than 50 µM; in the experiment on OVCAR-3 ovarian it was more than 50 µM. Moreover, the TGI in the experiment with SNB-19 CNS is 18.7 µM; with T-47D breast, more than 50 µM; in the experiment on UACC-257 melanoma, 2.54 µM; in the experiment on UACC-62 melanoma it was 1.74 µM.

`C[C@H](CS)C(=O)N1c2ccccc2C[C@H]1C(=O)O`: the TGI in the experiment with A498 renal, in the experiment on DU-145 prostate, with HOP-62 NSCLC, with MOLT-4 leukemia, with NCI/ADR-RES ovarian and in the experiment with OVCAR-3 ovarian was more than 100 µM in each case. In addition, the TGI with SNB-19 CNS, with T-47D breast, in the experiment with UACC-257 melanoma and with UACC-62 melanoma was more than 100 µM throughout.

Consider `Clc1ccc2ncc(-c3cccc(NC4CNC4)n3)n2c1`, for which the GI50 in the experiment on A498 renal is 5.7 µM; in the experiment on DU-145 prostate it was 4.58 µM; in the experiment on HOP-62 NSCLC, 5.98 µM; in the experiment on MOLT-4 leukemia, 5.03 µM; in the experiment on NCI/ADR-RES ovarian it was 33.5 µM; in the experiment on OVCAR-3 ovarian, 18.9 µM. For the same molecule, the GI50 in the experiment on SNB-19 CNS is 24.1 µM; in the experiment on T-47D breast it was 20.2 µM; with UACC-257 melanoma, 11.5 µM; with UACC-62 melanoma, 10.2 µM. The TGI with A498 renal is 19.7 µM; with DU-145 prostate, more than 100 µM; in the experiment on HOP-62 NSCLC, 65.4 µM; in the experiment on MOLT-4 leukemia, more than 100 µM; in the experiment on NCI/ADR-RES ovarian, more than 100 µM; with OVCAR-3 ovarian, more than 100 µM. Moreover, the TGI was more than 100 µM with SNB-19 CNS, 73.8 µM in the experiment with T-47D breast, 51.4 µM in the experiment with UACC-257 melanoma and 27.3 µM in the experiment with UACC-62 melanoma.

In the case of `COc1ccc(Cn2cc3c(c2)-c2oncc2CC3)cc1OC`, the GI50 in the experiment with A498 renal was 0.102 µM; in the experiment on DU-145 prostate it was 0.163 µM; in the experiment on HOP-62 NSCLC, 0.259 µM; in the experiment on MOLT-4 leukemia it was 0.274 µM; with NCI/ADR-RES ovarian, 0.132 µM; in the experiment with OVCAR-3 ovarian, 0.134 µM. The GI50 with SNB-19 CNS was 0.258 µM; in the experiment with T-47D breast it was 0.267 µM; in the experiment on UACC-257 melanoma it was 1.69 µM; in the experiment with UACC-62 melanoma it was 0.273 µM. Moreover, the TGI with A498 renal is 0.678 µM; in the experiment with DU-145 prostate, 0.544 µM; in the experiment with HOP-62 NSCLC, more than 50 µM; with MOLT-4 leukemia, more than 12.2 µM; in the experiment on NCI/ADR-RES ovarian, 1.38 µM; in the experiment with OVCAR-3 ovarian it was 0.35 µM. Further, the TGI in the experiment with SNB-19 CNS was more than 50 µM; in the experiment with T-47D breast it was more than 19.3 µM; with UACC-257 melanoma it was 22.3 µM; in the experiment on UACC-62 melanoma, more than 50 µM.

Turning to `O=C(Nc1ccccc1C(F)(F)F)c1ccc(NC2=C(Cl)C(=O)N(Cc3ccccc3)C2=O)cc1`, the GI50 is 38.3 µM with A498 renal; 34.2 µM in the experiment with DU-145 prostate; 21.5 µM in the experiment with HOP-62 NSCLC; 3.14 µM with MOLT-4 leukemia; 39.3 µM in the experiment with NCI/ADR-RES ovarian; 13.1 µM with OVCAR-3 ovarian. Also, the GI50 is 36.6 µM in the experiment on SNB-19 CNS, more than 100 µM with T-47D breast, 28.7 µM with UACC-257 melanoma and 18.1 µM with UACC-62 melanoma. The TGI is 89.4 µM with A498 renal; more than 100 µM in the experiment with DU-145 prostate; 43.1 µM in the experiment with HOP-62 NSCLC; 31.6 µM in the experiment with MOLT-4 leukemia; more than 100 µM in the experiment on NCI/ADR-RES ovarian; 76.9 µM in the experiment with OVCAR-3 ovarian. In addition, the TGI is more than 100 µM in the experiment on SNB-19 CNS, more than 100 µM in the experiment on T-47D breast, 82.9 µM in the experiment on UACC-257 melanoma and 59.2 µM in the experiment on UACC-62 melanoma.

On to `O=C(COc1ccc(OCC(=O)N2C(=O)CN(c3ccccc3)C2=S)cc1)N1C(=O)CN(c2ccccc2)C1=S`, for which the GI50 in the experiment with A498 renal was more than 25 µM; with DU-145 prostate, more than 25 µM; with HOP-62 NSCLC it was more than 25 µM; in the experiment on MOLT-4 leukemia, more than 100 µM; with NCI/ADR-RES ovarian, more than 25 µM; in the experiment on OVCAR-3 ovarian, more than 25 µM. Further, the GI50 in the experiment on SNB-19 CNS, with T-47D breast, with UACC-257 melanoma and in the experiment with UACC-62 melanoma was more than 25 µM in each case. Besides, the TGI in the experiment with A498 renal, in the experiment on DU-145 prostate, in the experiment on HOP-62 NSCLC, in the experiment on MOLT-4 leukemia, in the experiment on NCI/ADR-RES ovarian and in the experiment on OVCAR-3 ovarian was more than 100 µM throughout. The TGI in the experiment on SNB-19 CNS, in the experiment with T-47D breast, in the experiment on UACC-257 melanoma and in the experiment with UACC-62 melanoma was more than 100 µM in each case.
